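Dose response: 5 concentrations. Exposure: 48 h. Format: 96-well plates. Endpoint: linear interpolation; highest concentration if not reached. GI50 marks 50% less growth.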 The source made the active and inactive calls. No stated cut-off is given here; in the data, active = GI50 up to about 1.1 µM and inactive = higher.
What was measured:
Experiment in all cases: NCI anticancer screen, dose series, 48 h
SN12C = test system: SN12C
UO-31 = test system: UO-31
TK-10 = test system: TK-10
NCI-H226 = test system: NCI-H226
UACC-257 = test system: UACC-257
LXFL 529 = test system: LXFL 529
CAKI-1 = test system: CAKI-1
SF-268 = test system: SF-268
786-0 = test system: 786-0
HCT-15 = test system: HCT-15
NCI-H23 = test system: NCI-H23
OVCAR-3 = test system: OVCAR-3
LOX IMVI = test system: LOX IMVI
OVCAR-5 = test system: OVCAR-5
A498 = test system: A498
NCI-H522 = test system: NCI-H522
SK-MEL-28 = test system: SK-MEL-28
SW-620 = test system: SW-620
OVCAR-8 = test system: OVCAR-8
DMS-273 = test system: DMS-273
HCC 2998 = test system: HCC 2998
IGROV-1 = test system: IGROV-1
ACHN = test system: ACHN
RXF 393 = test system: RXF 393
CCRF-CEM = test system: CCRF-CEM
U-251 = test system: U-251
SNB-75 = test system: SNB-75
KM12 = test system: KM12
M19-MEL = test system: M19-MEL
MOLT-4 = test system: MOLT-4
SR = test system: SR
SK-OV-3 = test system: SK-OV-3
SF-295 = test system: SF-295
SNB-19 = test system: SNB-19
SNB-78 = test system: SNB-78
SK-MEL-2 = test system: SK-MEL-2
A549 = test system: A549
DLD-1 = test system: DLD-1
Malme-3M = test system: Malme-3M
HCT-116 = test system: HCT-116
UACC-62 = test system: UACC-62
KM-20L2 = test system: KM-20L2
NCI-H460 = test system: NCI-H460
SF-539 = test system: SF-539
HL-60 = test system: HL-60
SK-MEL-5 = test system: SK-MEL-5
COLO 205 = test system: COLO 205
EKVX = test system: EKVX
HT-29 = test system: HT-29

With `Nc1ncnc2c1ncn2CCOC(c1ccccc1)P(=O)(O)O` (centres undefined) the GI50 (SN12C) was > 100 µM (inactive), the GI50 (UO-31) was > 100 µM (inactive) and the GI50 (TK-10) was > 100 µM (inactive). For the same compound, the GI50 (NCI-H226) was > 100 µM (inactive), the GI50 (UACC-257) was > 100 µM (inactive) and the GI50 (LXFL 529) was > 100 µM (inactive). The GI50 (CAKI-1) was > 100 µM (inactive), the GI50 (SF-268) was > 100 µM (inactive) and the GI50 (786-0) was > 100 µM (inactive). For the same compound, the GI50 (HCT-15) was over 100 µM, the GI50 (NCI-H23) was > 100 µM (inactive) and the GI50 (OVCAR-3) was > 100 µM (inactive). For the same compound, the GI50 (LOX IMVI) was > 100 µM (inactive), the GI50 (OVCAR-5) was > 100 µM (inactive) and the GI50 (A498) was > 100 µM (inactive). The GI50 (NCI-H522) was > 100 µM (inactive), the GI50 (SK-MEL-28) was > 100 µM (inactive) and the GI50 (SW-620) was > 100 µM (inactive). For the same compound, the GI50 (OVCAR-8) was > 100 µM (inactive), the GI50 (DMS-273) was > 100 µM (inactive) and the GI50 (HCC 2998) was > 100 µM (inactive). For the same compound, the GI50 (IGROV-1) was > 100 µM (inactive), the GI50 (ACHN) was > 100 µM (inactive) and the GI50 (RXF 393) was > 100 µM (inactive). The GI50 (CCRF-CEM) was > 100 µM (inactive), the GI50 (U-251) was > 100 µM (inactive) and the GI50 (SNB-75) was > 100 µM (inactive). The GI50 (KM12) was > 100 µM (inactive), the GI50 (M19-MEL) was > 100 µM (inactive) and the GI50 (MOLT-4) was > 100 µM (inactive). For the same compound, the GI50 (SR) was > 100 µM (inactive), the GI50 (SK-OV-3) was > 100 µM (inactive) and the GI50 (SF-295) was > 100 µM (inactive). The GI50 (SNB-19) was > 100 µM (inactive), the GI50 (SNB-78) was > 100 µM (inactive) and the GI50 (SK-MEL-2) was > 100 µM (inactive). For the same compound, the GI50 (A549) was > 100 µM (inactive), the GI50 (DLD-1) was > 100 µM (inactive) and the GI50 (Malme-3M) was > 100 µM (inactive). The GI50 (HCT-116) was > 100 µM (inactive), the GI50 (UACC-62) was > 100 µM (inactive) and the GI50 (KM-20L2) was > 100 µM (inactive). For the same compound, the GI50 (NCI-H460) was > 100 µM (inactive), the GI50 (SF-539) was > 100 µM (inactive) and the GI50 (HL-60) was > 100 µM (inactive). For the same compound, the GI50 (SK-MEL-5) was > 100 µM (inactive), the GI50 (COLO 205) was > 100 µM (inactive) and the GI50 (EKVX) was > 100 µM (inactive). For the same compound, the GI50 (HT-29) was > 100 µM (inactive).
